The values that follow are results of earlier work, collected in US20060258633A1, “Amorphous tegaserod maleate” (priority 2005, published 2006).

For this data set the following is noted: white to off-white crystalline powder.

Turning to `CCCCCNC(=N)N/N=C/c1c[nH]c2ccc(OC)cc12.O=C(O)/C=C\C(=O)O` [Tegaserod maleate, 3-(5-methoxy-1H-indole-3-ylmethylene)-N-pentylcarbazimidamide hydrogen meleate], the solubility in ethanol entry (ethanol) is “slightly soluble”. For the same molecule, the solubility in water entry (water) is on record as “very slightly soluble”.
